US20250223306A1, “TEAD INHIBITORS AND METHODS OF USE” (Sporos BioDiscovery, Inc., priority 2022, published 2025)

Test system: MSTO-211H xenograft
Assay: Inhibition of mouse xenograft MSTO-211H tumors
Type: in vivo, BALB/c nude mice
Details: 12.5 mg/kg, PO, BID; for Tumor Volume (mean): day 27 (Table 16); for Relative T/C (treated/control relative tumor volume ratio) / TGI: day 27; for Relative T/C (treated/control relative tumor volume ratio): T/C(%) = TRTV / CRTV × 100; for TGI: TGI = [1 − (Ti − T0)/ (Vi − V0)] × 100
Text: This study evaluated the in vivo anti-tumor efficacy of test compounds in BALB/c nude mice for treatment of MSTO-211H xenograft of lung cancer.
• Species: Mus Musculus • Strain: BALB/c nude • Age: 6-8 weeks • Sex: female • Body weight: 18-22 g • Number of animals inoculated with tumor: 80 mice • Number of animals enrolled in the treatment: 36 mice • Number of unenrolled animals: 44 mice • Animal supplier: Beijing Vital River Biotechnology Experimental Animal Co. Ltd Certification number: 20170011010591
The MSTO-211H tumor cells were maintained in RPMI 1640 medium supplemented with 10% Fetal bovine serum and 1% Antibiotic-Antimycotic at 37° C. in an atmosphere of 5% CO2 in air. The tumor cells were routinely subcultured twice weekly by trypsin-EDTA. The cells growing in an exponential growth phase with 95% cell survival or above were harvested, and counted for tumor inoculation.
Each mouse was inoculated subcutaneously at the right flank with MSTO-211H tumor cells (5×10^6+50% matrigel/0.2 mL) for tumor development. Animals were marked with earrings with unique 6 significant figure number for identification. The treatments were started when the average tumor volume reached an average size of 181 mm^3.
The major endpoint was to see if the tumor growth could be delayed or mice could be cured. Tumor volume was measured twice a week in two dimensions using a caliper, and the volume was expressed in mm^3 using the formula: V=0.5 a×b^2 where a and b are the long and short diameters of the tumor, respectively. The tumor size was then used for calculations of T/C value. The TGI value (in percent) or the T/C value (in percent) is an indication of antitumor effectiveness; T and C are the mean tumor volumes or tumor weights of the treated and control groups, respectively, on a given day.
TGI was calculated for each group using the formula: TGI (%)=[1−(Ti−T0)/(Vi−V0)]×100; Ti is the average tumor volume of a treatment group on a given day, To is the average tumor volume of the treatment group on the day of treatment start, Vi is the average tumor volume of the vehicle control group on the same day with Ti, and V0 is the average tumor volume of the vehicle group on the day of treatment start.
Relative T/C (%)=TRTV/CRTV×100 (RTV(%)=Vt/V0×100, Vt is the average tumor volume on a given day, V0 is the average tumor volume on the first day of treatment. TRTV is the RTV of a treatment group, and the CRTV is the RTV of the vehicle control group.)
Summary statistics, including mean and the standard error of the mean (SEM), were provided for the tumor volume of each group at each time point.
Statistical analysis of difference in tumor volume among the groups was conducted on the data obtained at the end of the study.
One-tailed T test was performed to compare tumor volumes between two groups. All data are analyzed using GraphPad Prism 6.0. p<0.05 is considered to be statistically significant.
The antitumor effectiveness of the study was analyzed on PG-D27 when vehicle group reached 588 mm^3.

[1] = day 0 after the start of treatment
[2] = day 3 after the start of treatment
[3] = day 6 after the start of treatment
[4] = day 10 after the start of treatment
[5] = day 13 after the start of treatment
[6] = day 17 after the start of treatment
[7] = day 20 after the start of treatment
[8] = day 23 after the start of treatment
[9] = day 27 after the start of treatment

Structure (SMILES)	Tumor size (mean) [1] [mm^3]	Tumor size (mean) [2] [mm^3]	Tumor size (mean) [3] [mm^3]	Tumor size (mean) [4] [mm^3]	Tumor size (mean) [5] [mm^3]	Tumor size (mean) [6] [mm^3]	Tumor size (mean) [7] [mm^3]	Tumor size (mean) [8] [mm^3]	Tumor Volume (mean) [mm^3]	Relative T/C (treated/control relative tumor volume ratio) [%]	TGI [%]	Tumor size (mean) [9] [mm^3]
COc1cc(C2=CCC(C(F)(F)F)CC2)c2ncc(C(=O)N[C@H](C)CO)cc2c1 (stereo partly drawn) [Compound 110, N—((R)-1-hydroxypropan-2-yl)-6-methoxy-8-(4-(trifluoromethyl)cyclohex-1-en-1-yl)quinoline-3-carboxamide]	181	207	179	107	75	51	42	53	50	8.5	132.4	50
C[C@@H](NC(=O)c1cnc2c(C3=CCC4(CC3)CC4)cccc2c1)c1ncco1 [Compound 166, (R)—N-(1-(oxazol-2-yl)ethyl)-8-(spiro[2.5]oct-5-en-6-yl)quinoline-3-carboxamide]	181	192	177	153	145	139	148	184	219	38.1	90.7	219
C[C@H](CO)NC(=O)c1cnc2c(C3=CCC(C(F)(F)F)CC3)cccc2c1 (stereo partly drawn) [Compound 7, N—((R)-1-hydroxypropan-2-yl)-8-(4-(trifluoromethyl)cyclohex-1-en-1-yl)quinoline-3-carboxamide]	181	245	219	124	99	86	109	117	126	21.4	113.6	126
COc1cc(C2=CCC(C(F)(F)F)CC2)c2ncc(C(=O)N[C@H](C)c3ncco3)cc2c1 (stereo partly drawn) [Compound 109, 6-methoxy-N—((R)-1-(oxazol-2-yl)ethyl)-8-(4-(trifluoromethyl)cyclohex-1-en-1-yl)quinoline-3-carboxamide]	181	216	174	89	59	44	44	46	58	10.1	130.2	58
COC[C@H](CO)NC(=O)c1cnc2c(C3=CCC(C(F)(F)F)CC3)cccc2c1 (stereo partly drawn) [Compound 62, N—((S)-1-hydroxy-3-methoxypropan-2-yl)-8-(4-(trifluoromethyl)cyclohex-1-en-1-yl)quinoline-3-carboxamide]	181	224	228	149	111	82	88	101	104	17.9	119.1	104
